# Source: PubChem BioAssay (NCI)
#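 Tested at 5 concentrations; 48 h exposure; 96-well plates; endpoints linearly interpolated, else capped at highest concentration. Abbreviation: GI50, concentration required for 50% inhibition of growth. TGI denotes the concentration required for complete inhibition of growth.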
# Experiments:
# Assay in all cases: NCI tumour cell line growth inhibition, 48 h
# HT29 colon = tested on: HT29 colon
# SF-268 CNS = tested on: SF-268 CNS
# SR leukemia = tested on: SR leukemia
# SN12C renal = tested on: SN12C renal
# IGROV1 ovarian = tested on: IGROV1 ovarian
# MCF7 breast = tested on: MCF7 breast
# HS 578T breast = tested on: HS 578T breast
# OVCAR-4 ovarian = tested on: OVCAR-4 ovarian
# MALME-3M melanoma = tested on: MALME-3M melanoma
# DU-145 prostate = tested on: DU-145 prostate
# HL-60(TB) leukemia = tested on: HL-60(TB) leukemia
# BT-549 breast = tested on: BT-549 breast
# SF-295 CNS = tested on: SF-295 CNS
# SF-539 CNS = tested on: SF-539 CNS
# SK-OV-3 ovarian = tested on: SK-OV-3 ovarian
# OVCAR-8 ovarian = tested on: OVCAR-8 ovarian
# T-47D breast = tested on: T-47D breast
# UACC-62 melanoma = tested on: UACC-62 melanoma
# UO-31 renal = tested on: UO-31 renal
# LOX IMVI melanoma = tested on: LOX IMVI melanoma
# MDA-MB-231 breast = tested on: MDA-MB-231 breast
# NCI-H226 lung = tested on: NCI-H226 lung
# RXF 393 renal = tested on: RXF 393 renal
# HOP-62 NSCLC = tested on: HOP-62 NSCLC
# MDA-MB-435 = tested on: MDA-MB-435
# 786-0 renal = tested on: 786-0 renal
# A498 renal = tested on: A498 renal
# OVCAR-3 ovarian = tested on: OVCAR-3 ovarian
# ACHN renal = tested on: ACHN renal
# UACC-257 melanoma = tested on: UACC-257 melanoma
# M14 melanoma = tested on: M14 melanoma
# RPMI-8226 leukemia = tested on: RPMI-8226 leukemia
# HOP-92 NSCLC = tested on: HOP-92 NSCLC
# PC-3 prostate = tested on: PC-3 prostate
# NCI-H522 lung = tested on: NCI-H522 lung
# SK-MEL-5 melanoma = tested on: SK-MEL-5 melanoma
# NCI/ADR-RES ovarian = tested on: NCI/ADR-RES ovarian
# NCI-H23 lung = tested on: NCI-H23 lung
# SNB-19 CNS = tested on: SNB-19 CNS
# KM12 colon = tested on: KM12 colon
# CCRF-CEM leukemia = tested on: CCRF-CEM leukemia
# SW-620 colon = tested on: SW-620 colon
# HCT-15 colon = tested on: HCT-15 colon
# K-562 leukemia = tested on: K-562 leukemia
# SNB-75 CNS = tested on: SNB-75 CNS
# CAKI-1 renal = tested on: CAKI-1 renal
# TK-10 renal = tested on: TK-10 renal
# COLO 205 colon = tested on: COLO 205 colon
# SK-MEL-2 melanoma = tested on: SK-MEL-2 melanoma
# A549 NSCLC = tested on: A549 NSCLC
# OVCAR-5 ovarian = tested on: OVCAR-5 ovarian
# EKVX NSCLC = tested on: EKVX NSCLC
# NCI-H460 lung = tested on: NCI-H460 lung
# SK-MEL-28 melanoma = tested on: SK-MEL-28 melanoma
# U251 CNS = tested on: U251 CNS
# HCT-116 colon = tested on: HCT-116 colon
# MOLT-4 leukemia = tested on: MOLT-4 leukemia
smiles,measurement,setting,value
CN(C)CCNC(=O)c1cc2c3cc(Cl)ccc3[nH]c2c2ncccc12,GI50,HT29 colon,2.33 µM
same,TGI,HT29 colon,10.3 µM
same,GI50,SF-268 CNS,2.81 µM
same,TGI,SF-268 CNS,11.8 µM
same,GI50,SR leukemia,1.68 µM
same,TGI,SR leukemia,4.1 µM
same,GI50,SN12C renal,2.9 µM
same,TGI,SN12C renal,13.4 µM
same,GI50,IGROV1 ovarian,1.52 µM
same,TGI,IGROV1 ovarian,4.34 µM
same,GI50,MCF7 breast,1.8 µM
same,TGI,MCF7 breast,4.78 µM
same,GI50,HS 578T breast,1.87 µM
same,TGI,HS 578T breast,9.66 µM
same,GI50,OVCAR-4 ovarian,4.89 µM
same,TGI,OVCAR-4 ovarian,19.6 µM
same,GI50,MALME-3M melanoma,1.89 µM
same,TGI,MALME-3M melanoma,3.94 µM
same,GI50,DU-145 prostate,3.4 µM
same,TGI,DU-145 prostate,12.7 µM
same,GI50,HL-60(TB) leukemia,1.97 µM
same,TGI,HL-60(TB) leukemia,4.02 µM
same,GI50,BT-549 breast,2.26 µM
same,TGI,BT-549 breast,7.98 µM
same,GI50,SF-295 CNS,22.8 µM
same,TGI,SF-295 CNS,59.6 µM
same,GI50,SF-539 CNS,1.57 µM
same,TGI,SF-539 CNS,3.14 µM
same,GI50,SK-OV-3 ovarian,6.89 µM
same,TGI,SK-OV-3 ovarian,24.4 µM
same,GI50,OVCAR-8 ovarian,2.57 µM
same,TGI,OVCAR-8 ovarian,12.7 µM
same,GI50,T-47D breast,3.8 µM
same,TGI,T-47D breast,17.8 µM
same,GI50,UACC-62 melanoma,1.94 µM
same,TGI,UACC-62 melanoma,3.77 µM
same,GI50,UO-31 renal,1.1 µM
same,TGI,UO-31 renal,2.49 µM
same,GI50,LOX IMVI melanoma,1.51 µM
same,TGI,LOX IMVI melanoma,2.92 µM
same,GI50,MDA-MB-231 breast,1.98 µM
same,TGI,MDA-MB-231 breast,9.77 µM
same,GI50,NCI-H226 lung,4.04 µM
same,TGI,NCI-H226 lung,16.7 µM
same,GI50,RXF 393 renal,1.74 µM
same,TGI,RXF 393 renal,4.28 µM
same,GI50,HOP-62 NSCLC,5.85 µM
same,TGI,HOP-62 NSCLC,19.1 µM
same,GI50,MDA-MB-435,1.95 µM
same,TGI,MDA-MB-435,4.22 µM
same,GI50,786-0 renal,4.83 µM
same,TGI,786-0 renal,18.1 µM
same,GI50,A498 renal,3.52 µM
same,TGI,A498 renal,13.1 µM
same,GI50,OVCAR-3 ovarian,11.1 µM
same,TGI,OVCAR-3 ovarian,29.6 µM
same,GI50,ACHN renal,1.62 µM
same,TGI,ACHN renal,6.98 µM
same,GI50,UACC-257 melanoma,3.92 µM
same,TGI,UACC-257 melanoma,14.9 µM
same,GI50,M14 melanoma,1.7 µM
same,TGI,M14 melanoma,3.68 µM
same,GI50,RPMI-8226 leukemia,1.78 µM
same,TGI,RPMI-8226 leukemia,3.84 µM
same,GI50,HOP-92 NSCLC,2.36 µM
same,TGI,HOP-92 NSCLC,11.2 µM
same,GI50,PC-3 prostate,3.62 µM
same,TGI,PC-3 prostate,14.8 µM
same,GI50,NCI-H522 lung,2.26 µM
same,TGI,NCI-H522 lung,7.11 µM
same,GI50,SK-MEL-5 melanoma,1.34 µM
same,TGI,SK-MEL-5 melanoma,2.69 µM
same,GI50,NCI/ADR-RES ovarian,5.4 µM
same,TGI,NCI/ADR-RES ovarian,20.8 µM
same,GI50,NCI-H23 lung,6.31 µM
same,TGI,NCI-H23 lung,23.4 µM
same,GI50,SNB-19 CNS,4.52 µM
same,TGI,SNB-19 CNS,19.7 µM
same,GI50,KM12 colon,3.03 µM
same,TGI,KM12 colon,13.7 µM
same,GI50,CCRF-CEM leukemia,2.09 µM
same,TGI,CCRF-CEM leukemia,5.47 µM
same,GI50,SW-620 colon,1.47 µM
same,TGI,SW-620 colon,3.52 µM
same,GI50,HCT-15 colon,1.84 µM
same,TGI,HCT-15 colon,4.9 µM
same,GI50,K-562 leukemia,1.68 µM
same,TGI,K-562 leukemia,3.98 µM
same,GI50,SNB-75 CNS,3.85 µM
same,TGI,SNB-75 CNS,15.8 µM
same,GI50,CAKI-1 renal,3.52 µM
same,TGI,CAKI-1 renal,19.6 µM
same,GI50,TK-10 renal,3.81 µM
same,TGI,TK-10 renal,13.4 µM
same,GI50,COLO 205 colon,1.97 µM
same,TGI,COLO 205 colon,10.5 µM
same,GI50,SK-MEL-2 melanoma,4.2 µM
same,TGI,SK-MEL-2 melanoma,20.1 µM
same,GI50,A549 NSCLC,1.93 µM
same,TGI,A549 NSCLC,4.7 µM
same,GI50,OVCAR-5 ovarian,11.9 µM
same,TGI,OVCAR-5 ovarian,27.4 µM
same,GI50,EKVX NSCLC,2.8 µM
same,TGI,EKVX NSCLC,12.7 µM
same,GI50,NCI-H460 lung,2.57 µM
same,TGI,NCI-H460 lung,10.7 µM
same,GI50,SK-MEL-28 melanoma,2.12 µM
same,TGI,SK-MEL-28 melanoma,4.18 µM
same,GI50,U251 CNS,2.49 µM
same,TGI,U251 CNS,9.45 µM
same,GI50,HCT-116 colon,1.52 µM
same,TGI,HCT-116 colon,4.68 µM
same,GI50,MOLT-4 leukemia,1.54 µM
same,TGI,MOLT-4 leukemia,4.27 µM
